Laboratory results published in patent US8772335B2, “Adamantyl derivatives as therapeutic agents” (Women & Infants' Hospital of Rhode Island, priority 2011, dated 2014).

Columns and labels:
Type in all cases: cell-based
[1] = system: ovarian and endometrial cancer cells; assay: MTS viability with ascorbic acid co-treatment (role of ROS)
Experimental: Cancer cells derived from neuroblastoma (SMSKCNR), ovarian (SKOV-3), prostate (PC-3), endometrial (ECC-1, AN3CA, KLE), breast (MCF-7) and trophoblasts (TCL-1) were seeded (5000-10000 cells/well) in a 96 well plate in complete medium as recommended by ATCC and allowed to adhere overnight. The medium was replaced with fresh complete medium containing ascorbic acid (500 μM) and added various concentrations of AC-AM. The cells were incubated under standard humidified incubator (5% CO2) for 24 hours. The medium was replaced again with 100 μL of complete RPMI medium containing MTS reagent (Cell titre 96 aqueous one solution cell proliferation assay, Promega, Madison, Wis.) and incubated for 1-6 hours until violet farmazon color developed (the optical density of the color was read with an ELISA plate reader at 492 nm wavelength). The OD values of the treatment wells were plotted against vehicle OD set at 100% cell viability using MS excel software.

[2] = system: SKOV-3 cells; assay: Cell cycle progression of SKOV-3 cells (propidium iodide, FACS); set-up: G1 / Apoptosis: unit not given here; conditions: for G1 / G2/M / S / Apoptosis: SKOV-3 cells, 10 μM; for G1 / G2/M / S: cell population distribution by FACS; for Apoptosis: sub-G1 population by FACS
Experimental: SKOV-3 cells (˜1 million) were seeded in complete DMEM media in 10 cm^2 dishes and allowed to adhere overnight. Media was removed and supplemented with AMITC and AC-AM (10 μM) or vehicle and cells were harvested at 4, 12, 18, 32, and 48 hours. The cells were washed and fixed with cold 70% ethanol/H2O. After 1 hour, ethanol was removed and 500 μL of propidinium iodide (PI) (1 mg/10 mL) was added to each tube containing cells. The distribution of the cell population in various phases of cell-cycle was analyzed using FACS. 10,000 events were chosen from each sample.

[3] = system: immortalized TCL-1 trophoblasts; assay: MTS cell viability, immortalized trophoblasts (control cells); conditions: drug concentrations of 40 μM
Experimental: Cancer cells derived from neuroblastoma (SMSKCNR), ovarian (SKOV-3), prostate (PC-3), cervical (HeLa), skin (a431), immortalized lung fibroblasts (MRCS) and immortalized trophoblasts (TCL-1) were seeded (5000-10000) in a 96 well plate in complete medium as recommended by ATCC and allowed to adhere overnight. Medium was replaced with fresh complete medium containing various concentrations of compound (2) and (3). The cells were incubated under standard humidified incubator (5% CO2) for 48 hours. The medium was replaced again with 100 μL of complete RPMI medium containing MTS reagent (Cell titre 96 aqueous one solution cell proliferation assay, Promega, Madison, Wis.) and incubated for 1-6 hours until violet farmazon color developed (the optical density (OD) of the color was read with an ELISA plate reader at 492 nm wavelength). The OD values of the treatment wells were plotted against vehicle OD as 100% cell viablity using MS excel software.
Cancer cells derived from neuroblastoma (SMSKCNR), ovarian (SKOV-3), prostate (PC-3), endometrial (ECC-1, AN3CA, KLE), breast (MCF-7) and trophoblasts (TCL-1) were seeded (5000-10000 cells/well) in a 96 well plate in complete medium as recommended by ATCC and allowed to adhere overnight. The medium was replaced with fresh complete medium containing ascorbic acid (500 μM) and added various concentrations of AC-AM. […]

| Structure (SMILES) | G1 ([2]; 4 hr) | G2/M ([2]; 4 hr) | S ([2]; 4 hr) | Apoptosis ([2]; 4 hr) | G1 ([2]; 12 hr) | G2/M ([2]; 12 hr) | S ([2]; 12 hr) | Apoptosis ([2]; 12 hr) | G1 ([2]; 18 hr) | G2/M ([2]; 18 hr) | S ([2]; 18 hr) | Apoptosis ([2]; 18 hr) | G1 ([2]; 32 hr) | G2/M ([2]; 32 hr) | S ([2]; 32 hr) | Apoptosis ([2]; 32 hr) | G1 ([2]; 48 hr) | G2/M ([2]; 48 hr) | S ([2]; 48 hr) | Apoptosis ([2]; 48 hr) | other results |
| --- | --- | --- | --- | --- | --- | --- | --- | --- | --- | --- | --- | --- | --- | --- | --- | --- | --- | --- | --- | --- | --- |
| CC(=O)NC(CSC(=S)NCC12CC3CC(CC(C3)C1)C2)C(=O)O (stereo not shown) [AC-AM] | 63 | 10.40 | 25.70 | 4.81 | 45.15 | 27.17 | 27.67 | 7.73 | 37.37 | 30.85 | 31.78 | 13.33 | 37.78 | 28.89 | 33.34 | 16.29 | 48.48 | 17.90 | 33.62 | 16.62 | effect of antioxidant ascorbic acid on cytotoxicity [1]: blocked |
| S=C=NCC12CC3CC(CC(C3)C1)C2 [AMITC, adamantyl methyl isothiocyanate] | 63 | 11 | 25.30 | 7.24 | 46.18 | 26.06 | 27.27 | 8.52 | 39.19 | 29.13 | 31.32 | 14.83 | 48 | 20.12 | 31.86 | 16.07 | 43 | 37.44 | 19.36 | 19.46 | viability of immortalized TCL-1 trophoblasts [3]: not significantly affected; effect on cell cycle phases (in words) ([2]; SKOV-3 ovarian cancer cells): arrest ovarian cancer cells in G2/M phase |
